Results: article PMC5011342, “A high throughput drug screening assay to identify compounds that promote oligodendrocyte differentiation using acutely dissociated and purified oligodendrocyte precursor cells” (BMC Research Notes, 2016)
Where two headings read alike, the source gives them in different places.

Assays:
[1] = tested on: acutely dissociated and purified rat OPCs; assay: Acute OL differentiation assay (MBP expression/cell, immunofluorescent image quantification); format: cell-based; details: sheet "All OLga data"
In short: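 Oligodendrocyte precursor cells were enriched from P6-P7 Sprague–Dawley rat brains by immunopanning (RAN-2 and GalC depletion, O4 selection), plated at 5000 cells/well in serum-free, mitogen-free differentiation media on PDL/laminin 96-well view plates, centrifuged at 200×g, and pre-incubated 1–2 h before test compounds were added in quadruplicate. On DIV4, cells were fixed, stained for MBP and DAPI, imaged automatically, and MBP expression per cell was quantified.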

expanded OPCs = assay: cells; details: for viability at 0.1 µM / viability at 1 µM / viability at 10 µM: Rattus norvegicus, 72 h
In short: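 Expanded OPCs seeded at 10,000 cells/well in differentiation media, then exposed to NCC library compounds at 10, 1 and 0.1 µM (quadruplicate, 0.1% DMSO) for three days. Viability read as alamarBlue fluorescence (560/590 nm) after 4 h at 37 °C; tunicamycin 5 ng/ml served as toxicity control.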

[2] = alamarBlue viability of expanded OPCs, compound at 0.1 µM, relative to DMSO control
[3] = alamarBlue viability of expanded OPCs, compound at 1 µM, relative to DMSO control
[4] = alamarBlue viability of expanded OPCs, compound at 10 µM, relative to DMSO control
[5] = Rattus norvegicus, test compound at 2 uM, MBP expression relative to quetiapine, NCC library screen, read-out: 2 uM (% Quet)
[6] = Rattus norvegicus, test compound at 10 uM, MBP expression relative to quetiapine, NCC library screen, read-out: 10 uM (% Quet)
[7] = Rattus norvegicus, test compound at 2 uM, NCC library screen, relative to quetiapine, read-out: 2 uM (% Quet)
[8] = Rattus norvegicus, test compound at 10 uM, NCC library screen, relative to quetiapine, read-out: 10 uM (% Quet)
[9] = read-out: 0.1 µM (% DMSO), alamarBlue viability, NCC library compound at 0.1 µM, sheet "All Tox data"
[10] = read-out: 1 µM (% DMSO), alamarBlue viability, NCC library compound at 1 µM, sheet "All Tox data"
[11] = read-out: 10 µM (% DMSO), alamarBlue viability, NCC library compound at 10 µM, sheet "All Tox data"
[12] = Rattus norvegicus, test compound at 0.4 uM, NCC library screen, relative to quetiapine, read-out: 0.4 uM (% Quet)
[13] = Rattus norvegicus, 2 uM test compound, relative to quetiapine, read-out: OL differentiation, 2 uM (% Quet)
[14] = Rattus norvegicus, 10 uM test compound, relative to quetiapine, read-out: OL differentiation, 10 uM (% Quet)
[15] = read-out: 0.1 µM (% DMSO), alamarBlue viability of expanded OPCs, compound at 0.1 µM, sheet All Tox data
[16] = read-out: 1 µM (% DMSO), alamarBlue viability of expanded OPCs, compound at 1 µM, sheet All Tox data
[17] = read-out: 10 µM (% DMSO), alamarBlue viability of expanded OPCs, compound at 10 µM, sheet All Tox data

| SMILES | 0.1 µM (% DMSO) (expanded OPCs; [2]) | 1 µM (% DMSO) (expanded OPCs; [3]) | 10 µM (% DMSO) (expanded OPCs; [4]) | activation at 2 µM [1, 7] [%] | activation at 10 µM [1, 8] [%] | viability at 0.1 µM (expanded OPCs; [9]) [%] | viability at 1 µM (expanded OPCs; [10]) [%] | viability at 10 µM (expanded OPCs; [11]) [%] | also measured |
| --- | --- | --- | --- | --- | --- | --- | --- | --- | --- |
| O=C(NCC1CCCCN1)c1cc(OCC(F)(F)F)ccc1OCC(F)(F)F (stereo not drawn) [Flecainide] | 64.1 | 9.0 | 7.7 | – | – | – | – | – | activation at 0.08 µM ([1]; Rattus norvegicus, test compound at 0.08 uM, MBP expression relative to quetiapine, NCC library screen, read-out: 0.08 uM (% Quet)): 2.3% |
| CCOC(=O)[C@H](CCc1ccccc1)N[C@@H](C)C(=O)N1Cc2ccccc2C[C@H]1C(=O)O [Quinapril] | 95.3 | 90.0 | 85.6 | – | – | – | – | – | activation at 2 µM [1, 5]: 2.2%; activation at 10 µM [1, 6]: -12.2% |
| Cc1nc2ccc(CN(C)c3ccc(C(=O)N[C@@H](CCC(=O)O)C(=O)O)s3)cc2c(=O)[nH]1 [Raltitrexed] | – | – | – | -13.8 | -1.3 | 71.4 | 63.5 | 59.6 | – |
| CC1(C)S[C@@H]2[C@H](NC(=O)COc3ccccc3)C(=O)N2[C@H]1C(=O)O [Penicillin V] | 96.1 | 96.3 | 93.4 | – | – | – | – | – | activation at 2 µM [1, 5]: 14.6%; activation at 10 µM [1, 6]: 6.4% |
| COc1ccc2[nH]cc(C3=CCNCC3)c2c1 [RU-24969] | – | – | – | -15.5 | – | 83.2 | 62.4 | 36.7 | activation at 0.4 µM [1, 12]: -5.3% |
| O=C(c1ccccc1)c1ccc2n1CCC2C(=O)O (stereo not drawn) [Ketorolac] | – | – | – | 16.3 | -1.3 | 97.7 | 102 | 103 | – |
| CCN(CC)CCOc1ccc(C(=C(Cl)c2ccccc2)c2ccccc2)cc1 [Clomiphene] | 172.3 | 59.8 | 8.1 | – | – | – | – | – | activation at 0.4 µM ([1]; Rattus norvegicus, test compound at 0.4 uM, MBP expression relative to quetiapine, NCC library screen, read-out: 0.4 uM (% Quet)): 51.5% |
| CCN1CCN(C(=O)N[C@@H](C(=O)N[C@@H]2C(=O)N3[C@@H]2SC(C)(C)[C@@H]3C(=O)O)c2ccccc2)C(=O)C1=O [Piperacillin] | 89.0 | 88.3 | 88.0 | 2 | -7.9 | – | – | – | – |
| N[C@@H](Cc1cc(I)c(Oc2ccc(O)c(I)c2)c(I)c1)C(=O)O [Triiodothyronine] | 237.5 | 217.6 | 207.1 | -36.3 | -37.8 | – | – | – | – |
| C[C@]12C=CC(=O)C=C1CC[C@@H]1[C@@H]2C(=O)C[C@@]2(C)[C@H]1CC[C@]2(O)C(=O)CO [Prednisone] | 88.8 | 89.0 | 86.2 | -4.5 | -47.4 | – | – | – | – |
| Oc1ncnc2[nH]ncc12 [Allopurinol] | 83.9 | 89.7 | 89.6 | -5.6 | -5.5 | – | – | – | – |
| C[C@]12C=CC(=O)C=C1CC[C@@H]1[C@@H]2[C@@H](O)C[C@@]2(C)[C@H]1CC[C@]2(O)C(=O)COC(=O)CCC(=O)O [Prednisolone hemisuccinate] | – | – | – | 10.2 | 9.3 | 107 | 95 | 94.3 | – |
| CC(=O)O[C@]1(C(C)=O)CC[C@H]2[C@@H]3C=C(C)C4=CC(=O)CC[C@]4(C)[C@H]3CC[C@@]21C [Megestrol acetate] | – | – | – | – | – | – | – | – | activation at 2 µM [1, 13]: -21.6%; activation at 10 µM [1, 14]: -29.4%; viability at 0.1 µM (expanded OPCs; [15]): 97.2%; viability at 1 µM (expanded OPCs; [16]): 89.3%; viability at 10 µM (expanded OPCs; [17]): 96.5% |
| CCOC(=O)O[C@]1(C(=O)OCCl)CC[C@H]2[C@@H]3CCC4=CC(=O)C=C[C@]4(C)[C@H]3[C@@H](O)C[C@@]21C [Loteprednol etabonate] | – | – | – | – | – | 104 | 98.4 | 86.4 | activation at 2 µM [1, 13]: -10.9%; activation at 10 µM [1, 14]: -29.2% |
| Nc1ncn([C@@H]2O[C@H](CO)[C@@H](O)[C@H]2O)c(=O)n1 [Azacitidine] | 92.1 | 66.4 | 57.5 | – | – | – | – | – | activation at 2 µM [1, 5]: -59.1%; activation at 10 µM [1, 6]: -131% |
| CC1(C)O[C@@H]2C[C@H]3[C@@H]4CCC5=CC(=O)C=C[C@]5(C)[C@@]4(F)[C@@H](O)C[C@]3(C)[C@]2(C(=O)CO)O1 [Triamcinolone Acetonide] | – | – | – | -1.9 | 1.9 | 133 | 127 | 127 | – |
| CC1CNc2c(cccc2S(=O)(=O)N[C@@H](CCCNC(=N)N)C(=O)N2CC[C@@H](C)C[C@@H]2C(=O)O)C1 (stereo partly drawn) [Argatroban] | – | – | – | – | – | – | – | – | activation at 2 µM [1, 13]: 0.26%; activation at 10 µM [1, 14]: 2.3%; viability at 0.1 µM (expanded OPCs; [15]): 103%; viability at 1 µM (expanded OPCs; [16]): 101%; viability at 10 µM (expanded OPCs; [17]): 93% |
| CCC1=C(C)CN(C(=O)NCCc2ccc(S(=O)(=O)NC(=O)N[C@H]3CC[C@H](C)CC3)cc2)C1=O [Glimepiride] | – | – | – | -12.7 | -54 | 97.2 | 82.6 | 83.6 | – |
| CN(C)CCC(c1ccc(Cl)cc1)c1ccccn1 (stereo not drawn) [Chlorpheniramine] | – | – | – | 7.6 | – | 86.5 | 77.7 | 46.7 | activation at 0.4 µM ([1]; Rattus norvegicus, 0.4 uM test compound, relative to quetiapine, read-out: OL differentiation, 0.4 uM (% Quet)): 8.7%; activation at 2 µM [1, 13]: 10.5%; activation at 0.4 µM [1, 12]: -6.7% |
| NCC(=O)CCC(=O)O [Aminolevulinic Acid] | – | – | – | 5.1 | -16.1 | 96 | 86.7 | 73.4 | – |
| O=C1CC2(CCCC2)CC(=O)N1CCCCN1CCN(c2ncccn2)CC1 [Buspirone] | 98.1 | 95.9 | 122.3 | – | – | – | – | – | activation at 2 µM [1, 5]: 11.2%; activation at 10 µM [1, 6]: 38.1% |
| CCN1CC(CCN2CCOCC2)C(c2ccccc2)(c2ccccc2)C1=O (stereo not drawn) [Doxapram] | – | – | – | -8.9 | 14.8 | 89 | 89.2 | 79.9 | – |
| CN1CC[C@]23CCCC[C@H]2[C@H]1Cc1ccc(O)cc13 [Levorphanol] | – | – | – | – | – | – | – | – | activation at 2 µM [1, 13]: -6.9%; activation at 10 µM [1, 14]: 17%; viability at 0.1 µM (expanded OPCs; [15]): 77.4%; viability at 1 µM (expanded OPCs; [16]): 83.4%; viability at 10 µM (expanded OPCs; [17]): 74% |
| C[C@]12CCC(=O)C=C1CC[C@@H]1[C@@H]2[C@@H](O)C[C@@]2(C)[C@H]1CC[C@]2(O)C(=O)COC(=O)CCC(=O)O [Cortisol succinate] | – | – | – | – | – | – | – | – | 2 uM (% Quet) ([1]; test compound at 2 uM, NCC library screen, relative to quetiapine): 3.6 % Quet; 10 uM (% Quet) ([1]; test compound at 10 uM, NCC library screen, relative to quetiapine): 21.7 % Quet; 0.1 µM (% DMSO) (expanded OPCs; alamarBlue viability, NCC library compound at 0.1 µM, sheet "All Tox data"): 123.4 % DMSO; 1 µM (% DMSO) (expanded OPCs; alamarBlue viability, NCC library compound at 1 µM, sheet "All Tox data"): 127.0 % DMSO; 10 µM (% DMSO) (expanded OPCs; alamarBlue viability, NCC library compound at 10 µM, sheet "All Tox data"): 132.7 % DMSO |
| CN(C)CCN(Cc1ccccc1)c1ccccn1 [Tripelennamine] | – | – | – | – | – | – | – | – | activation at 2 µM [1, 13]: 8.2%; activation at 10 µM [1, 14]: 31.1%; viability at 0.1 µM (expanded OPCs; [15]): 82.9%; viability at 1 µM (expanded OPCs; [16]): 86.1%; viability at 10 µM (expanded OPCs; [17]): 80.7% |
| NC(=O)OCC(COC(N)=O)c1ccccc1 [Felbamate] | – | – | – | – | – | 92.3 | 95.5 | 91.9 | activation at 2 µM [1, 13]: -1.8%; activation at 10 µM [1, 14]: -7.9% |
| CO[C@H]1/C=C/O[C@@]2(C)Oc3c(C)c(O)c4c(O)c(c(/C=N/N5CCN(C)CC5)c(O)c4c3C2=O)NC(=O)/C(C)=C\C=C\[C@H](C)[C@H](O)[C@@H](C)[C@@H](O)[C@@H](C)[C@H](OC(C)=O)[C@@H]1C [Rifampicin] | 91.7 | 85.6 | 62.3 | -69.7 | -188 | – | – | – | – |
